Test results taken from US20090305993A1, “METHODS AND COMPOSITION FOR THE TREATMENT OF GASTROINTESTINAL DISORDERS” (IRONWOOD PHARMACEUTICALS, INC., priority 2006, published 2009).
Where a SMILES comes first, the peptide text is derived from it. Bridges are numbered along the chain shown (N, C = ends).

How the values were obtained:
adult male Wistar rats = experiment: water avoidance stress-induced visceral hyperalgesia model; type: in vivo, rat; settings: oral 3 μg/kg, FIG. 7f
Description: The effect of SEQ ID NO:3 on basal visceral nociception in a model of water avoidance stress-induced visceral hyperalgesia in adult male Wistar rats was tested. The stress involved confining rats to a platform surrounded by water for a period of 1 hour and then measuring their visceromotor response to colonic distension using electromyography (EMG).
Electrode leads were then tunneled subcutaneously and externalized laterally for future access. Following surgery, rats were housed in pairs and allowed to recover for at least 7 days. On the day of the experiment, animals were lightly anesthetized with halothane, and a lubricated latex balloon (6 cm) was inserted intra-anally into the descending colon. Animals were allowed to recover for 30 minutes, and colorectal distension (CRD) was initiated. The CRD procedure consisted of graded intensities of phasic CRD (10, 20, 40, 60 mmHg; 20 s duration; 4 min inter-stimulus interval). Visceromotor response (VMR) to CRD was quantified by measuring EMG activity. […] Animals were allowed 1 hour recovery and then SEQ ID NO:3 or vehicle was orally administered. At 1 hour following administration of SEQ ID NO:3 or vehicle CRD was repeated. […]
To determine the effect of SEQ ID NO:3 in a model of water avoidance stress-induced visceral hyperalgesia, a baseline CRD was recorded and then the animals were subjected to 1 hour of water avoidance stress. […]

[1] = absorbability study in mice, ELISA detection; type: in vivo; settings: CD1, mouse, serum, IV and oral, FIG. 10a, read-out: bioavailable
Description: To study the pharmacokinetics of SEQ ID NO:3, absorbability studies in mice were performed by administering SEQ ID NO:3 intravaneously via tail vein injection or orally by gavage to 8-week-old CD1 mice. Serum was collected from the animals at various time points and tested for the presence of SEQ ID NO:3 using a competitive enzyme-linked immunoabsorbent assay (Oxoid, ST EIA kit, Cat#TD0700). The assay utilized monoclonal antibodies against ST peptide (antibodies are provided in the Oxoid kit) and synthetically manufactured SEQ ID NO:3.

[2] = stability in simulated gastric fluid (SGF) pH 1; type: in vitro ADME; settings: pH 1, 37° C., up to 3 h
Description: All samples were analyzed by LC/MS
The reference control sample was diluted 10-fold (1000 μL volume) in distilled water for a final concentration of 10 μM and chilled on ice. At each time point, samples were diluted 10-fold (1000 μL volume) in distilled water for an expected concentration of 10 μM, and chilled on ice, until analysis.

intestinal GC-C receptor = molecular target: T1, intestinal GC-C receptor (Homo sapiens, UniProt P25092); experiment: intestinal GC-C receptor activity assay (cyclic GMP EIA) in T84 cells; type: cell-based; settings: chemically synthesized peptides, FIGS. 2a and 2b
T1 construct: monolayers of T84 cells in 24-well plates; host or cells: T84 human colon carcinoma cells
Description: The ability of SEQ ID NO:5, SEQ ID NO:4, SEQ ID NO:3, and SEQ ID NO:6 to activate the intestinal GC-C receptor was assessed in an assay employing the T84 human colon carcinoma cell line (American Type Culture Collection (Bethesda, Md.)). For the assays cells were grown to confluency in 24-well culture plates with a 1:1 mixture of Ham's F12 medium and Dulbecco's modified Eagle's medium (DMEM), supplemented with 5% fetal calf serum and were used at between passages 54 and 60.
Briefly, monolayers of T84 cells in 24-well plates were washed twice with 1 ml/well DMEM, then incubated at 37° C. for 10 min with 0.45 ml DMEM containing 1 mM isobutylmethylxanthine (IBMX), a cyclic nucleotide phosphodiesterase inhibitor. Test peptides (50 μl) were then added and incubated for 30 minutes at 37° C. The media was aspirated and the reaction was then terminated by the addition of ice cold 0.5 ml of 0.1N HCl. The samples were held on ice for 20 minutes and then evaporated to dryness using a heat gun or vacuum centrifugation.

mouse = experiment: phenylbenzoquinone (PBQ)-induced writhing model; settings: oral; SEQ ID NO:5 1 mg/kg, SEQ ID NO:3 2.5 mg/kg; versus vehicle control, FIGS. 8a, 8b
healthy subjects = experiment: seven-day oral dosing study in humans, bowel habits; type: in vivo, human
Description: Seven daily doses of 30, 100, 300, or 1000 μg of chemically synthesized SEQ ID NO:3 were given to 48 healthy subjects. SEQ ID NO:3 or placebo (vehicle) was administered orally in 5.0 mL 50 mM phosphate buffer (pH 6.0) plus 3×20 mL water rinses and 175 mL water after at least a 10-hour fast. In each dosing group, 8 subjects were randomized to receive SEQ ID NO:3 and 4 subjects were randomized to receive placebo. […] The Mean Ease of Passage (FIG. 15d) of stools was tested for subjects treated with 30-1000 μg SEQ ID NO:3.

chymotrypsin = chymotrypsin (Bos taurus, UniProt P00766); settings: 37° C., up to 24 h
Description: The stability of SEQ ID NO:3 in the presence of several mammalian digestive enzymes was determined. SEQ ID NO:3 was exposed to a variety of in vitro conditions including digestive enzymes and low ph environments designed to simulate gastric fluid. SEQ ID NO:3 was incubated with chymotrypsin, trypsin, pepsin, aminopeptidase, carboxypeptidase A, and simulated gastric fluid (sgf) at ph 1.0. Samples were collected at 0, 3, and 24 h for all conditions except pepsin digestion and the SGF. For the latter two conditions, samples were obtained at 0, 1, and 3 h. Negative control samples were prepared for initial and final time points. A separate, positive activity control was run in parallel to SEQ ID NO:3. All samples were analyzed by LC/MS
500 μl samples of 0.01 mg/mL SEQ ID NO:3 and guanylin (Sigma-Aldrich, G116; positive control) were prepared in the chymotrypsin reaction buffer (100 mM Tris-HCl, 10 mM CaCl2, pH 7.5) in 2 mL eppendorf tubes. Zero and 24 h control samples were prepared by adding 5 μL of a 10 mM chymostatin (Sigma-Alrich, C7268; a chymotrypsin inhibitor) stock for a final concentration of 100 μM. All samples were incubated at 37° C. for 5 min. […] These standards were used to generate a standard curve for quantification of samples. […]

T1 sequence (P25092 24-1073): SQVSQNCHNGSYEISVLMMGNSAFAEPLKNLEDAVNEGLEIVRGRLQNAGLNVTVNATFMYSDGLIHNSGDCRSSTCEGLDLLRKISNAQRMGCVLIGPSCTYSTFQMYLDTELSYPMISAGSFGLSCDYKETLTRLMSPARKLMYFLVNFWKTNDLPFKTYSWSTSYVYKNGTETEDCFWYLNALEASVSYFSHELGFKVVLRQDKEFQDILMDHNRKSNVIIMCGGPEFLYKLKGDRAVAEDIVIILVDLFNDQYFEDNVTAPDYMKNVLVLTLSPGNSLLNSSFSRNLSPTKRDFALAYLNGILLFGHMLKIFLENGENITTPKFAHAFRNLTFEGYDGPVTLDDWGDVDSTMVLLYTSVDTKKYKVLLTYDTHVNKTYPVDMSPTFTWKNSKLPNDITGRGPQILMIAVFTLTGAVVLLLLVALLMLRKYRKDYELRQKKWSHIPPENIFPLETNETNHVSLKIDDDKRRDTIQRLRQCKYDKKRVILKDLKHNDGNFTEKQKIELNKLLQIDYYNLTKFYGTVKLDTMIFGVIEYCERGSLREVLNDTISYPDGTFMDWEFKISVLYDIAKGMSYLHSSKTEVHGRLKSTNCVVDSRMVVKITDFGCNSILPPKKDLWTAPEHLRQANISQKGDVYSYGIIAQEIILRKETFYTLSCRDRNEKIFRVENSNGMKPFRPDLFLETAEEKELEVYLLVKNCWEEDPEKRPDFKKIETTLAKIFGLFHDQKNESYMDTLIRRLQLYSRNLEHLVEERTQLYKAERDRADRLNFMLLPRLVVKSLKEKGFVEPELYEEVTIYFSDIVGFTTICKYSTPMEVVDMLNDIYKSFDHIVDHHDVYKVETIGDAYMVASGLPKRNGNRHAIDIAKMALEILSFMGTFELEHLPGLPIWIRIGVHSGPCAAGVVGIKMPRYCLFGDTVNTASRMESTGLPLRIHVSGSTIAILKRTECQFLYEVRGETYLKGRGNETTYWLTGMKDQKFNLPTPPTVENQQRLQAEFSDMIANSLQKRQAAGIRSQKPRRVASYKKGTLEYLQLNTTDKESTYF

Structure (SMILES): C[C@@H]1NC(=O)[C@@H]2CCCN2C(=O)[C@H](CC(N)=O)NC(=O)[C@@H]2CSSC[C@H](N)C(=O)N[C@H]3CSSC[C@H](NC1=O)C(=O)N[C@@H]([C@@H](C)O)C(=O)NCC(=O)N[C@H](C(=O)N[C@@H](Cc1ccc(O)cc1)C(=O)O)CSSC[C@H](NC(=O)[C@H](Cc1ccc(O)cc1)NC(=O)[C@H](CCC(=O)O)NC3=O)C(=O)N2 [SEQ ID NO:3] (H-CCEYCCNPACTGCY-OH; disulfide 1-6, 2-10, 5-13; N-terminus and C-terminus assumed)
- visceromotor response to CRD 24 hours after water avoidance stress (adult male Wistar rats): exhibited anti-hyperalgesic properties
- bioavailability [1]: < 2.2%
- Cleavage of SEQ ID NO: 3 by proteolytic substance [2]: not detectable
- activity in GC-C receptor activity assay (intestinal GC-C receptor): activity comparable to SEQ ID NO:4
- writhings (mouse): Significant reductions in writhings
- Mean Ease of Passage of stools, baseline versus treatment, placebo versus SEQ ID NO:3 (healthy subjects; 1000 μg dose group, FIG. 15e): greatest difference
- Mean Stool Weight (healthy subjects; seven daily oral doses 30-1000 μg, higher doses, FIG. 15C): increase
- Mean Stool Frequency (stools per week) (healthy subjects; seven daily oral doses 30-1000 μg, higher doses, FIG. 15b): increase
- Cleavage of SEQ ID NO: 3 by proteolytic substance (chymotrypsin): not detectable
